Laboratory results as given in ChEMBL document CHEMBL4651402, “Screening of ~5500 FDA-approved drugs and clinical candidates for anti-SARS-CoV-2 activity” (2021).

System: SARS-CoV-2
Assay: microbe, parasite or virus in culture
Settings: Severe acute respiratory syndrome coronavirus 2, Vero C1008, 48 h

CN1C(=O)COc2c(C(=O)NC3CN4CCC3CC4)cc(Cl)cc21 (configuration not stated) [AZASETRON]
IC50: > 20 µM | IC50 (read-out: pIC50 (converted)): > 20 µM

O=[N+]([O-])c1ccc(O)c2ncccc12 [NITROXOLINE]
IC50: > 20 µM | IC50 (read-out: pIC50 (converted)): > 20 µM

Cc1nc(N2CCN(C)CC2)c2nc(-c3ccccc3Cl)n(C3CCOCC3)c2n1 [LY2828360]
IC50: > 20 µM | IC50 (read-out: pIC50 (converted)): > 20 µM

O=C(c1ccc(/C=C/c2n[nH]c3ccccc23)cc1)N1CCNCC1 [KW-2449]
IC50: > 20 µM | IC50 (read-out: pIC50 (converted)): > 20 µM

CC12CCC3C(CC[C@H]4Cc5n[nH]cc5C[C@]34C)C1CC[C@]2(C)O (some centres not stated)
IC50: > 20 µM | IC50 (read-out: pIC50 (converted)): > 20 µM

Nc1ncnc2c1ncn2C1OC(COP(=O)(O)O)C(O)C1O (configuration not stated)
IC50: > 20 µM | IC50 (read-out: pIC50 (converted)): > 20 µM

CC(=O)/C=C(\C)NCCN/C(C)=C/C(C)=O
IC50: > 20 µM | IC50 (read-out: pIC50 (converted)): > 20 µM

Oc1c(Cl)cc(Cl)cc1Sc1cc(Cl)cc(Cl)c1O [BITHIONOL]
IC50: > 20 µM | IC50 (read-out: pIC50 (converted)): > 20 µM

CC(=O)O[C@@H]1CC2(C)C(C(C)=O)CCC2C2CCC3=CC(=O)CCC3(C)C21 (some centres not stated)
IC50: > 20 µM | IC50 (read-out: pIC50 (converted)): > 20 µM

C[N+](C)(C)CCOP(=O)([O-])OC[C@@H](O)CO
IC50: > 20 µM | IC50 (read-out: pIC50 (converted)): > 20 µM

CNC1=Nc2ccc(Cl)cc2C(c2ccccc2)=[N+]([O-])C1 [CHLORDIAZEPOXIDE]
IC50: > 20 µM | IC50 (read-out: pIC50 (converted)): > 20 µM

CCC[C@H](NC(=O)[C@@H]1[C@H]2CCC[C@H]2CN1C(=O)[C@@H](NC(=O)[C@@H](NC(=O)c1cnccn1)C1CCCCC1)C(C)(C)C)C(=O)C(=O)NC1CC1
IC50: > 20 µM | IC50 (read-out: pIC50 (converted)): > 20 µM

CNc1ccc(-c2ccc3cc(OC[C@H](O)CF)ccc3n2)cn1 [THK-5351]
IC50: > 20 µM | IC50 (read-out: pIC50 (converted)): > 20 µM

CCOC(=O)[N-]c1c[n+](N2CCOCC2)no1 [MOLSIDOMINE]
IC50: > 20 µM | IC50 (read-out: pIC50 (converted)): > 20 µM

CC(C)Oc1ccc(-c2nc(-c3cccc4c3CC[C@@H]4NCCO)no2)cc1C#N [OZANIMOD]
IC50: > 20 µM | IC50 (read-out: pIC50 (converted)): > 20 µM

NC[C@@H]1O[C@H](O[C@H]2[C@@H](O)[C@H](O[C@@H]3[C@@H](O)[C@H](N)C[C@H](N)[C@H]3O[C@H]3O[C@H](CO)[C@@H](O)[C@H](O)[C@H]3N)O[C@@H]2CO)[C@H](N)[C@@H](O)[C@@H]1O [PAROMOMYCIN]
IC50: > 20 µM | IC50 (read-out: pIC50 (converted)): > 20 µM

COc1cc(/C=C/C(=O)N2CCN(CC(=O)N3CCCC3)CC2)cc(OC)c1OC [CINEPAZIDE]
IC50: > 20 µM | IC50 (read-out: pIC50 (converted)): > 20 µM

C[C@@H](Nc1ncnc2[nH]c(-c3ccc(O)cc3)cc12)c1ccccc1 [PKI-166]
IC50: > 20 µM | IC50 (read-out: pIC50 (converted)): > 20 µM

CC(C)=CCc1c2c(c3occ(-c4ccc(O)cc4)c(=O)c3c1O)C=CC(C)(C)O2 [OSAJIN]
IC50: > 20 µM | IC50 (read-out: pIC50 (converted)): > 20 µM

CC(=O)N1C[C@H](O)C[C@H]1C(=O)O [OXACEPROL]
IC50: > 20 µM | IC50 (read-out: pIC50 (converted)): > 20 µM

Cc1ccccc1N1C(=O)c2cc(S(N)(=O)=O)c(Cl)cc2NC1C (configuration not stated) [METOLAZONE]
IC50: > 20 µM | IC50 (read-out: pIC50 (converted)): > 20 µM

CN[C@@H](C)[C@@H](O)c1ccccc1 [PSEUDOEPHEDRINE]
IC50: > 20 µM | IC50 (read-out: pIC50 (converted)): > 20 µM

C[C@@H]1[C@H](O)[C@@H](C)\C=C/C=C\C=C/C=C\C=C/C=C\C=C/[C@H](O[C@@H]2O[C@H](C)[C@@H](O)[C@H](N)[C@@H]2O)C[C@@H]2O[C@](O)(C[C@@H](O)C[C@@H](O)[C@H](O)CC[C@@H](O)C[C@@H](O)CC(=O)O[C@H]1C)C[C@H](O)[C@H]2C(=O)O
IC50: > 20 µM | IC50 (read-out: pIC50 (converted)): > 20 µM

COc1cc(C(=O)NC2CCCNC2)cc(OC)c1OC (configuration not stated) [TROXIPIDE]
IC50: > 20 µM | IC50 (read-out: pIC50 (converted)): > 20 µM

CC(CN(C)C)CN1c2ccccc2OCOc2ccc(Cl)cc21 (configuration not stated) [TRABOXOPINE]
IC50: > 20 µM | IC50 (read-out: pIC50 (converted)): > 20 µM

Nc1ccc(S(=O)(=O)Nc2ccnn2-c2ccccc2)cc1 [SULFAPHENAZOLE]
IC50: > 20 µM | IC50 (read-out: pIC50 (converted)): > 20 µM

O=C(CCCN1CCC(C(=O)c2ccc(F)cc2)CC1)c1ccc(F)cc1 [LENPERONE]
IC50: > 20 µM | IC50 (read-out: pIC50 (converted)): > 20 µM

COC(=O)C1=C(C)NC(C)=C(C(=O)OC(C)(C)CN(C)CCC(c2ccccc2)c2ccccc2)C1c1cccc([N+](=O)[O-])c1 (configuration not stated) [LERCANIDIPINE]
IC50: > 20 µM | IC50 (read-out: pIC50 (converted)): > 20 µM

NC(CO)(CO)CO [TROMETHAMINE]
IC50: > 20 µM | IC50 (read-out: pIC50 (converted)): > 20 µM

Fc1ccc(C(OCCN2CCN(CCCc3ccccc3)CC2)c2ccc(F)cc2)cc1 [VANOXERINE]
IC50: > 20 µM | IC50 (read-out: pIC50 (converted)): > 20 µM

O=C(/C=C/c1ccccc1)c1ccc(O)cc1O [2',4'-DIHYDROXYCHALCONE]
IC50: > 20 µM | IC50 (read-out: pIC50 (converted)): > 20 µM

CS(=O)(=O)c1ccc2c(c1)N(CCCN1CCC(C(N)=O)CC1)c1ccccc1S2 [METOPIMAZINE]
IC50: > 20 µM | IC50 (read-out: pIC50 (converted)): > 20 µM

CC(C)[C@@]1(NC(=O)[C@@H]2C[C@@H]3c4cccc5[nH]cc(c45)C[C@H]3N(C)C2)O[C@@]2(O)[C@@H]3CCCN3C(=O)[C@H](Cc3ccccc3)N2C1=O [DIHYDROERGOCRISTINE]
IC50: > 20 µM | IC50 (read-out: pIC50 (converted)): > 20 µM

COC(=O)c1c(C)cc(OC(=O)c2c(C)cc(O)c(C=O)c2O)c(C)c1O [ATRANORIN]
IC50: > 20 µM | IC50 (read-out: pIC50 (converted)): > 20 µM

O=c1ccn([C@@H]2O[C@H](CO)[C@@H](O)[C@@H]2O)c(=O)[nH]1 [ARAURIDINE]
IC50: > 20 µM | IC50 (read-out: pIC50 (converted)): > 20 µM

NC(COCc1ccccc1)C(=O)O (configuration not stated)
IC50: > 20 µM | IC50 (read-out: pIC50 (converted)): > 20 µM

COc1ccccc1Oc1c(NS(=O)(=O)c2ccc(C)cn2)nc(-c2ccncc2)nc1OC [AVOSENTAN]
IC50: > 20 µM | IC50 (read-out: pIC50 (converted)): > 20 µM

O=C(O)CCNC(=O)c1ccccc1 [BETAMIPRON]
IC50: > 20 µM | IC50 (read-out: pIC50 (converted)): > 20 µM

O=C(O)[C@@H]1C[C@@H](C2CCCCC2)CN1C(=O)CP(=O)(O)CCCCc1ccccc1 [FOSINOPRILAT]
IC50: > 20 µM | IC50 (read-out: pIC50 (converted)): > 20 µM

Cn1ncc(-c2nc(N[C@H]3CC[C@H](N)CC3)ncc2Cl)c1CC1CC1 [BTX-A51]
IC50: > 20 µM | IC50 (read-out: pIC50 (converted)): > 20 µM

CCC(=O)OC(CC(=O)O)C[N+](C)(C)C (configuration not stated)
IC50: > 20 µM | IC50 (read-out: pIC50 (converted)): > 20 µM

CN1C2CCC1CC(OC(c1ccccc1)c1ccccc1N)C2 (configuration not stated)
IC50: > 20 µM | IC50 (read-out: pIC50 (converted)): > 20 µM

C[N+](C)(C)NCCC(=O)O
IC50: > 20 µM | IC50 (read-out: pIC50 (converted)): > 20 µM

CN(C)Cc1nccn1-c1ccc(NC(=O)c2cc(C(F)(F)F)nn2-c2ccc3onc(N)c3c2)c(F)c1 [RAZAXABAN]
IC50: > 20 µM | IC50 (read-out: pIC50 (converted)): > 20 µM

CC(C)c1cc(C(=O)N2Cc3ccc(CN4CCN(C)CC4)cc3C2)c(O)cc1O [ONALESPIB]
IC50: > 20 µM | IC50 (read-out: pIC50 (converted)): > 20 µM

C[Si](C)(C)c1cccc(C(=O)C(F)(F)F)c1
IC50: > 20 µM | IC50 (read-out: pIC50 (converted)): > 20 µM

C[N+]1(C)[C@@H]2CC[C@@H]1CC(OC(=O)C(CO)c1ccccc1)C2 (some centres not stated)
IC50: > 20 µM | IC50 (read-out: pIC50 (converted)): > 20 µM

COc1cc2nc(N(C)CCCNC(=O)C3CCCO3)nc(N)c2cc1OC (configuration not stated) [ALFUZOSIN]
IC50: > 20 µM | IC50 (read-out: pIC50 (converted)): > 20 µM

C[C@]12CCC(=O)C(O)=C1CC[C@@H]1[C@@H]2CC[C@]2(C)C(=O)CC[C@@H]12 [FORMESTANE]
IC50: > 20 µM | IC50 (read-out: pIC50 (converted)): > 20 µM

O=C(CN1C(=O)C2(CCCC2)NC[C@H]1c1cc(F)cc(F)c1)Nc1ccc2c(c1)C[C@@]1(C2)C(=O)Nc2ncccc21 [MK3207]
IC50: > 20 µM | IC50 (read-out: pIC50 (converted)): > 20 µM

CC1(C)C(=O)Nc2cc3[nH]c(-c4ccncc4)nc3cc21 [ADIBENDAN]
IC50: > 20 µM | IC50 (read-out: pIC50 (converted)): > 20 µM
